The record followed here is ChEMBL document CHEMBL6121021, “Design and Synthesis of Topoisomerases-Histone Deacetylase Dual Targeted Quinoline-Bridged Hydroxamates as Anticancer Agents” (J Med Chem, 2025).

The source made the active and inactive calls. The calls are words filed in the database; no cut-off is given here. A value given as a limit tells only on which side of the number the result lay.

Data set [1] addresses T1, Histone deacetylase 1 (Homo sapiens, UniProt Q13547). Briefly: Inhibition of HDAC1 (unknown origin) incubated for 48 hrs.
For data set [2], the target named is T2, Protein deacetylase HDAC6 (Homo sapiens, UniProt Q9UBN7).
T2 sequence (Q9UBN7 whole entry): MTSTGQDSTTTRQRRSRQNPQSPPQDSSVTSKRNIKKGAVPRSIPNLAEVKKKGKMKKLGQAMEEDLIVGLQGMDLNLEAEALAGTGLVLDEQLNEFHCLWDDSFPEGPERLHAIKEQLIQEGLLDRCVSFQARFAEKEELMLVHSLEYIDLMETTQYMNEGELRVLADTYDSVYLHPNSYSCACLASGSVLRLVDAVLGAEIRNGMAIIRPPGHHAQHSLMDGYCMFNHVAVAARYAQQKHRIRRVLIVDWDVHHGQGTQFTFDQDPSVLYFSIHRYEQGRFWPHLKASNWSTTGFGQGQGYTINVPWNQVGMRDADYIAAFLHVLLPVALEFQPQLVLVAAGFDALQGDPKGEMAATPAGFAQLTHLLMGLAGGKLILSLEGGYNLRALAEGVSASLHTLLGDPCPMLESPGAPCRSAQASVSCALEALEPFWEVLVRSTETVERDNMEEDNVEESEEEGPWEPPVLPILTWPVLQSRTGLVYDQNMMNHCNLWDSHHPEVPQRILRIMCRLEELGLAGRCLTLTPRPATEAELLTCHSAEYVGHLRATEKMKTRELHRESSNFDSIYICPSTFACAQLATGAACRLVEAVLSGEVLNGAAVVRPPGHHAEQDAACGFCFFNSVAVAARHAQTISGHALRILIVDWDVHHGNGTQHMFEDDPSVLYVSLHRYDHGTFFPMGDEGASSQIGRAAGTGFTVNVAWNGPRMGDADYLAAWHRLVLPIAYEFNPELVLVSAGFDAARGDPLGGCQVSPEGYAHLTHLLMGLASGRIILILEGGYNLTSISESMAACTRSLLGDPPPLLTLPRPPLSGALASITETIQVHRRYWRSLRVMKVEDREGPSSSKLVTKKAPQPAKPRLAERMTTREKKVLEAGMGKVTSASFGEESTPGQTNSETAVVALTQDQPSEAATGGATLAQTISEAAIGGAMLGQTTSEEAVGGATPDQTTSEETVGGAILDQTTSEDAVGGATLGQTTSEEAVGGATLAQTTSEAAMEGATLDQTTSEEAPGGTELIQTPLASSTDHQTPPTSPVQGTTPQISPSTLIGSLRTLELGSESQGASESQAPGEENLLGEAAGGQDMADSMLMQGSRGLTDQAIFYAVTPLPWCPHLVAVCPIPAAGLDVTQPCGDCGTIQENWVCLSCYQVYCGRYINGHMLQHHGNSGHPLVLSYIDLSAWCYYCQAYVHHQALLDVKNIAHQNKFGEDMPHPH
In words: Inhibition of HDAC6 (unknown origin).

Data set [3] has as its target Polyamine deacetylase HDAC10 (Homo sapiens, UniProt Q969S8). Briefly: Inhibition of HDAC10 (unknown origin).
Another data set deals with Histone deacetylase 2 (Homo sapiens, UniProt Q92769). In words: Inhibition of HDAC2 (unknown origin).
The target in another data set is Histone deacetylase 3 (Homo sapiens, UniProt O15379). Briefly: Inhibition of HDAC3 (unknown origin).
The target of data set [4] is T1, Histone deacetylase 1. Briefly: Inhibition of HDAC1 (unknown origin).
For a further data set, the target named is T3, Histone deacetylase 8 (Homo sapiens, UniProt Q9BY41).
T3 sequence (Q9BY41 whole entry): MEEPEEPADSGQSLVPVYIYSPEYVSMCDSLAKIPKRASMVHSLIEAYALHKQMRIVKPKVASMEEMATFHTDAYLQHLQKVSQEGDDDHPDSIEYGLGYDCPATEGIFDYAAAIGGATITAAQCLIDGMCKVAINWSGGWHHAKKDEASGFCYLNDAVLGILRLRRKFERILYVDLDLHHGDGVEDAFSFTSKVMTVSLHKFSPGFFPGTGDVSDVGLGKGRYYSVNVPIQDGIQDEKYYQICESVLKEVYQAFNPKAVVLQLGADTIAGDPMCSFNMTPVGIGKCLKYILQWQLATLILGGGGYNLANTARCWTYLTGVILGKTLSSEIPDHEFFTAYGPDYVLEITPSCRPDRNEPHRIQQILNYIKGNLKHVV
In words: Inhibition of HDAC8 (unknown origin).

In the next data set the target is Histone deacetylase 4 (Homo sapiens, UniProt P56524). In words: Inhibition of HDAC4 (unknown origin).
In another data set the target is Histone deacetylase 11 (Homo sapiens, UniProt Q96DB2). In words: Inhibition of HDAC11 (unknown origin).
A short description of data set [5]: Antiproliferative activity against human NCI-H1975 cells harboring EGFR T790M mutant incubated for 48 hrs by MTT assay. The note with it: NCI-H1975, 48 h. It is filed as functional, cell-based.
Data set [6] is described as follows: Toxicity in athymic nude Crl:NU-Foxn1nu mouse xenografted with human A549 cells assessed as animal survival at 30 mg/kg, po administered twice a week for 1 month. The format is organism-based. The conditions noted are these: in vivo, 730 h, time 1 months.
The test system of another data set is A549. Briefly: cells. The note with it: Homo sapiens, A549, 48 h.
For data set [7], the system named is MDA-MB-231. Briefly: cells. The format is functional, cell-based. The note with it: Homo sapiens, MDA-MB-231, 48 h.
The next data set deals with MCF7. In words: cells. The format is functional, cell-based. The conditions noted are these: Homo sapiens, MCF7, 48 h.
The subject of data set [8] is MDA-MB-231. Briefly: Anti-cancer activity against human MDA-MB-231 cells assessed as decrease in PCNA level at 5 uM incubated for 48 hrs by immunoblot analysis. The format is functional, cell-based.
In a further data set the test system is NCI-H1299. In words: cells. It is filed as functional, cell-based. The note with it: Homo sapiens, NCI-H1299, 48 h.
Another data set has as its system HT-29. Briefly: cells. The note with it: Homo sapiens, HT-29, 48 h. It is filed as functional, cell-based.

T1 sequence (Q13547 whole entry): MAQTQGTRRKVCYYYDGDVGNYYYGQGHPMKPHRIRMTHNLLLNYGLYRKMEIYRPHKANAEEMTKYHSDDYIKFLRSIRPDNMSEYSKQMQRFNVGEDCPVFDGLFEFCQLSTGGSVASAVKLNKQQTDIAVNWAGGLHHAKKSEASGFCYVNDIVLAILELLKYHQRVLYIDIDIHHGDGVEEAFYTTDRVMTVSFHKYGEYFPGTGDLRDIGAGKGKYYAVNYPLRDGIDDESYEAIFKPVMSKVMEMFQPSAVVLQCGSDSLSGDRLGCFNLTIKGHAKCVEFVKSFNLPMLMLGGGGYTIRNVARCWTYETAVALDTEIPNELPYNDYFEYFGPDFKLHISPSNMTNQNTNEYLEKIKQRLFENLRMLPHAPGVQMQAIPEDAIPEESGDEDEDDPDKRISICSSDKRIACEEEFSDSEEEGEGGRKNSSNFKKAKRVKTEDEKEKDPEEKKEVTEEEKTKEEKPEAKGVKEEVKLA
Sequence of Histone deacetylase 4 (P56524 whole entry): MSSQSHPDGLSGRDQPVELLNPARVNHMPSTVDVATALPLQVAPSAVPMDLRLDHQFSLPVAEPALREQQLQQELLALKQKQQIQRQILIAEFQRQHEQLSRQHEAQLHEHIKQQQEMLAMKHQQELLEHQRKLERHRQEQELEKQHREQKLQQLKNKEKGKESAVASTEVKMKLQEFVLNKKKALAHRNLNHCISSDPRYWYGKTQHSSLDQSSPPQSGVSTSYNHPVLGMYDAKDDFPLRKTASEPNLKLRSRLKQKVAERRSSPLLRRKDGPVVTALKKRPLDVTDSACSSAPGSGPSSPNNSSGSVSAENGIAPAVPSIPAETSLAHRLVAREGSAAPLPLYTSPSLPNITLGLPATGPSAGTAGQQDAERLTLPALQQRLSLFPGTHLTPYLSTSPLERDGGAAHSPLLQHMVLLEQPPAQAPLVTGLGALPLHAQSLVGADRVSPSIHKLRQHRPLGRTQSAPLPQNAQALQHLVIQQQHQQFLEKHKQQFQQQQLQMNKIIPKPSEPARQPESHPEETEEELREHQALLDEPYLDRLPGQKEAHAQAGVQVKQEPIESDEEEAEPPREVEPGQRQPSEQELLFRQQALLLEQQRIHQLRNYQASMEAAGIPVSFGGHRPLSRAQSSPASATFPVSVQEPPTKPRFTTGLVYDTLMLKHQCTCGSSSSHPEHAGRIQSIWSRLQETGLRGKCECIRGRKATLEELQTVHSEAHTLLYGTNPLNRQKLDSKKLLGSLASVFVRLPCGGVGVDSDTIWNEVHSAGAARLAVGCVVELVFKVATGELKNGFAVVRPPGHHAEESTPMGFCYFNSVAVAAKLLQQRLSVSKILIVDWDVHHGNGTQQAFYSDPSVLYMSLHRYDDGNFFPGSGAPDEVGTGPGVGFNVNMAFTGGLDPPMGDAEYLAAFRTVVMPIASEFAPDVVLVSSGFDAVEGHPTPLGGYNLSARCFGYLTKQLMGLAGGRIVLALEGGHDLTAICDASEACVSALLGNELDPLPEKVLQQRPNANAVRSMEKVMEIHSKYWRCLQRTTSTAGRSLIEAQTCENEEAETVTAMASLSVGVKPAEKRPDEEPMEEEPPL
Sequence of Histone deacetylase 11 (Q96DB2 whole entry): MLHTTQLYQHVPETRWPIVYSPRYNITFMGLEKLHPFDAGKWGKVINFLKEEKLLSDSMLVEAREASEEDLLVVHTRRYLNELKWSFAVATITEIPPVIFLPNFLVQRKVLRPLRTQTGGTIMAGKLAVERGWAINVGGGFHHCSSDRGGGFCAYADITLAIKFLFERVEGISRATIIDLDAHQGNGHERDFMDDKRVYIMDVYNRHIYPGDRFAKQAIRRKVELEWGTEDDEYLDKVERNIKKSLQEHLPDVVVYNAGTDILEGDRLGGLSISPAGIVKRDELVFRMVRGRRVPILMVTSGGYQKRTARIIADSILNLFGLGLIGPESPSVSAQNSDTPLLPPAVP
Sequence of Histone deacetylase 3 (O15379 whole entry): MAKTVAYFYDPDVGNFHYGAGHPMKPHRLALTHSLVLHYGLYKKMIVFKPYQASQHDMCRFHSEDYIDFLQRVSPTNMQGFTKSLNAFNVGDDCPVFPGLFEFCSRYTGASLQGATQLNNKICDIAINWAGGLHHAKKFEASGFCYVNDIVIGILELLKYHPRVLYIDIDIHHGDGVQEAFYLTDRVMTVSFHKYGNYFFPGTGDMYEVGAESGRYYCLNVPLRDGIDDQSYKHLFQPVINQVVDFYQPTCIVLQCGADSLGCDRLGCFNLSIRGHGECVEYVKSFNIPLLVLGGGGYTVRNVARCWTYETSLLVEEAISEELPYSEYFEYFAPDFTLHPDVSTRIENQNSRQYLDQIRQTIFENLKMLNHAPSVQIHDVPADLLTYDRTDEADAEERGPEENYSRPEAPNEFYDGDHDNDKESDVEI
Sequence of Polyamine deacetylase HDAC10 (Q969S8 whole entry): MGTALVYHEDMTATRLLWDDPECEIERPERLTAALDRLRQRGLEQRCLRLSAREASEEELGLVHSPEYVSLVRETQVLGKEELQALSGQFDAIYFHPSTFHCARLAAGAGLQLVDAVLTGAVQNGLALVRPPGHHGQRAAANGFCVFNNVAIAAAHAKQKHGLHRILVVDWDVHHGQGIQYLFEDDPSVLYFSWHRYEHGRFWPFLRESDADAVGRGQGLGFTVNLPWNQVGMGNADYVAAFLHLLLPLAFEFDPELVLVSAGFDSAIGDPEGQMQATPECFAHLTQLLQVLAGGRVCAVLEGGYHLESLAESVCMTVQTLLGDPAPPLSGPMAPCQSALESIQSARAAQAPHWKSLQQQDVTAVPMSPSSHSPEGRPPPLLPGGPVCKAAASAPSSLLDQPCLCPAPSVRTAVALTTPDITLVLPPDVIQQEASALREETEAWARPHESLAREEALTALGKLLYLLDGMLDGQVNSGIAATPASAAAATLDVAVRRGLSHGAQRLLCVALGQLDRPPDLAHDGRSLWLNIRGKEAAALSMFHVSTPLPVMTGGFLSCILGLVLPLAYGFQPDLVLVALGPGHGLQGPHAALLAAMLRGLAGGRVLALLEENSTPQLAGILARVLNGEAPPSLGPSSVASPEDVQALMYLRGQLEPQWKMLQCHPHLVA
Sequence of Histone deacetylase 2 (Q92769 whole entry): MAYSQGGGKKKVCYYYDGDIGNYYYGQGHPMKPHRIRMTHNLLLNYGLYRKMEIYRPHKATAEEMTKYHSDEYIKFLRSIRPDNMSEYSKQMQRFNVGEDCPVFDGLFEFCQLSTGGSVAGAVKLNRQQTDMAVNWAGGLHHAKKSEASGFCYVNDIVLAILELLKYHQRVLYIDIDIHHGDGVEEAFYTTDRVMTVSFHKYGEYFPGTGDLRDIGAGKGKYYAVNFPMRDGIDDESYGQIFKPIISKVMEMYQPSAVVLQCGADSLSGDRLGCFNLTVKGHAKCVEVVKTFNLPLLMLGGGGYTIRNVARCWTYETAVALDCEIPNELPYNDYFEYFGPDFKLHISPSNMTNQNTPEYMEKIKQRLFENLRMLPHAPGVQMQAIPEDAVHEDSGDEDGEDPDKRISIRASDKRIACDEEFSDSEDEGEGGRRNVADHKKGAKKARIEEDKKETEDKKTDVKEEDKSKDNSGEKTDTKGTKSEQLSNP

`O=C(CCCCCOc1ccc(-c2nc3ccccc3c3cc(-c4ccccc4)nn23)cc1)NO` registered an IC50 against Histone deacetylase 1 [1] of 0.79 µM.

For the compound `CN1c2ccccc2C(=O)N2[C@H](C(=O)Nc3ccc(C(=O)Nc4ccccc4N)cc3)Cc3c([nH]c4ccccc34)[C@@H]12`, the IC50 in data set [2] is more than 0.1 µM; in data set [3], 0.0055 µM; at Histone deacetylase 2 it was 0.01 µM; at Histone deacetylase 3 it was 0.027 µM; against Histone deacetylase 1 [4] it was 0.00016 µM; against Histone deacetylase 8 it was more than 0.1 µM. Moreover, the IC50 against Histone deacetylase 4 and on Histone deacetylase 11 was more than 0.1 µM in each case.

In the case of `O=C(CCCCCCC(=O)Nc1ccccc1)NO` [VORINOSTAT], the 50% inhibitory concentration (IC50) in data set [5] is 1.03 µM; with A549, 7.76 µM. In addition, in data set [6], the Activity entry is reported as “Non-toxic”.

Turning to `CC[C@@]1(O)C(=O)OCc2c1cc1n(c2=O)Cc2cc3ccccc3nc2-1` [CAMPTOTHECIN], the IC50 was found to be 7.36 µM with MDA-MB-231 [7]; 5.67 µM in the data set on MCF7; 5.22 µM in the data set with NCI-H1299; 6.87 µM in the data set with HT-29; 6.86 µM with A549. In addition, the result in the data set on MDA-MB-231 [8] was inactive.
